Measured values reported in US9493436B2, “Tyrosine phosphatase inhibitors and uses thereof to modulate the activity of enzymes involved in the pathology of Mycobacterium tuberculosis” (priority 2011, dated 2016).

Tests used:
Assay in all cases: biochemical
Format in all cases: biochemical
mPTPB = target: T1, mPTPB (Mycobacterium tuberculosis, UniProt I6WXK4); conditions: for IC50: pNPP substrate, pH 7.0, 25° C., read-out: IC50 (μM) against mPTPB
T1 construct: The full-length mPTPB with a N-terminal His6-tag was expressed and purified; His6 (N); made in house; host or cells: E. coli BL21/DE3 (pET28b-mPTPB)
T1 sequence (I6WXK4 1-276): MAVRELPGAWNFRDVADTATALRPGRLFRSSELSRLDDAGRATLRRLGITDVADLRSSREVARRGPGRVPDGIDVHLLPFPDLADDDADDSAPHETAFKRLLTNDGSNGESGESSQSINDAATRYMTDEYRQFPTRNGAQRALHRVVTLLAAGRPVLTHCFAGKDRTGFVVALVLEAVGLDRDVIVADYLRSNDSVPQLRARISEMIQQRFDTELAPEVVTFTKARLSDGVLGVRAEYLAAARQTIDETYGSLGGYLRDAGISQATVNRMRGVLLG

Lyp = target: T2, Lyp (Homo sapiens, UniProt Q9Y2R2)
T2 sequence (Q9Y2R2 1-807): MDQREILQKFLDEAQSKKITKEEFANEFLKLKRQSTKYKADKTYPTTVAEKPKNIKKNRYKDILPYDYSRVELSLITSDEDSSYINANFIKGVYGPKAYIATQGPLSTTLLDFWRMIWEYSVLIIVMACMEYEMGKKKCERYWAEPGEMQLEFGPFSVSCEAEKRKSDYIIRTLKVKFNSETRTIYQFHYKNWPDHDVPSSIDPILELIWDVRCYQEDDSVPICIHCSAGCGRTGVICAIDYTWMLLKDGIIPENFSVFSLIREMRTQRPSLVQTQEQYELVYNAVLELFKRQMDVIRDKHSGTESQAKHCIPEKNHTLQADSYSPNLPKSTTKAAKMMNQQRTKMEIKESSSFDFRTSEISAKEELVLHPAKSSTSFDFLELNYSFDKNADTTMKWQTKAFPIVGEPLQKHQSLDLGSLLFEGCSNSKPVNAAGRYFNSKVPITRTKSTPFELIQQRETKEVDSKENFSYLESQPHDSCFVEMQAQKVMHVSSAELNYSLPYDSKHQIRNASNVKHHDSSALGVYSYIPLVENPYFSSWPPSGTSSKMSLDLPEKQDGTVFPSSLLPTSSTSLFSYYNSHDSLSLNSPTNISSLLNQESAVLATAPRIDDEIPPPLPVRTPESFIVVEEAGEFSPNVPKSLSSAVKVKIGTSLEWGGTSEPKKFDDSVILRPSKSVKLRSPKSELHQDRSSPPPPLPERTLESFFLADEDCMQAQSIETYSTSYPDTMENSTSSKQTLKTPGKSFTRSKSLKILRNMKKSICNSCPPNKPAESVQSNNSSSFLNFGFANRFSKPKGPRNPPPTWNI

PTP1B = target: T3, PTP1B (Homo sapiens, UniProt P18031)
T3 sequence (P18031 1-435): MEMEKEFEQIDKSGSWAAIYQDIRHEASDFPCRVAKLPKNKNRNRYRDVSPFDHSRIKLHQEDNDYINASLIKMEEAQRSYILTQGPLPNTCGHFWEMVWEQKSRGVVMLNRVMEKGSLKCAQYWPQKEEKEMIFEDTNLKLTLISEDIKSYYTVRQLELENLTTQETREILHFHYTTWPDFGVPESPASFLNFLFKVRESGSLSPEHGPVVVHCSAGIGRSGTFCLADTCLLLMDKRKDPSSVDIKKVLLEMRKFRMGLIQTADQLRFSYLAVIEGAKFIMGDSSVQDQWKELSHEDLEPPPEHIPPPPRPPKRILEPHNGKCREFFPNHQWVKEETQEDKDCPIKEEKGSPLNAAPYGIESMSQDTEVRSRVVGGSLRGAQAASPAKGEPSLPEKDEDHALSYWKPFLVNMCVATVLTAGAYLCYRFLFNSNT

SHP2-D2C = SHP2-D2C (Homo sapiens, UniProt Q06124)
SHP2-D2C, sequence (Q06124 224-528 limits assumed): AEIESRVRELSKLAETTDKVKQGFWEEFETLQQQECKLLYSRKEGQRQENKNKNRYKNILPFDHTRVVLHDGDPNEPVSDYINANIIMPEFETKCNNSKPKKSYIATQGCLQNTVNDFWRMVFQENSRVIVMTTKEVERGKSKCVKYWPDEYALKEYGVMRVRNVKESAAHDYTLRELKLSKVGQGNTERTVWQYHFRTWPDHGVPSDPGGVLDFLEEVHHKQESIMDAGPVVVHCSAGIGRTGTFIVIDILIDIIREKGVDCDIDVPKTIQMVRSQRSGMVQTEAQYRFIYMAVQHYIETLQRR

Compound | IC50 (mPTPB) [µM] | IC50 (Lyp) [µM] | loss of activity compare with compound 133 for Lyp (Lyp) [fold] | potency against mPTPB relative to mother compound 207a (mPTPB) [times] | selectivity for mPTPB towards PTP1B (PTP1B) [fold] | selectivity for mPTPB towards Shpt (SHP2-D2C) [fold]
O=C(O)COc1ccc(-c2oc3cc(O)c(C(=O)O)cc3c2C#Cc2cccc(Cl)c2)cc1 [50 (Core 75)] | 0.101 | 7.6 ± 0.4 | 7.8 | – | – | –
Cn1c(-c2ccccc2C(F)(F)F)c(C#Cc2cc(F)cc(F)c2)c2cc(C(=O)O)c(O)cc21 [Compound 209a, 3-((3,5-difluorophenyl)ethynyl)-6-hydroxy-1-methyl-2-(2-(trifluoromethyl)phenyl)-1H-indole-5-carboxylic acid] | 0.21 ± 0.05 | – | – | 5 | 100 | 30
O=C(O)COc1cccc(-c2oc3cc(O)c(C(=O)O)cc3c2C#Cc2cccc(Cl)c2)c1 [49 (Core 74)] | 0.076 | – | 15 | – | – | –
